Measured values reported in US7109186B2 (Bristol-Myers Squibb Company, priority 2002, dated 2006).

Target: T1, HIV-integrase (Human immunodeficiency virus type 1 group M subtype B, UniProt P04585)
T1 construct: 0.26 ng of recombinant integrase was incubated with the beads for 90 min at 37 C
Experiment: HIV integrase SPA integration assay (biotin-labeled substrate DNA on streptavidin SPA beads, P33-labeled target DNA)
Assay type: biochemical
Conditions: percent inhibition of HIV-integrase in the presence of 20 μM of compound
Method: For each reaction, 5 pmole of biotin labeled substrate DNA was bound to 100 ug of Streptavidin coated PVT SPA beads (Amersham Pharmacia Biotech). 0.26 ng of recombinant integrase was incubated with the beads for 90 min at 37 C. Unbound enzyme was removed by washing the complex followed by addition of inhibitors and 0.1 fmol of P33 labeled target DNA. Reaction was stopped by adding EDTA to a final concentration of 10 mM. Samples were counted in TopCountNXT (Packard) and the CPM was used as a measure of integration. Reaction condition was as described in A. Engelman and R. Craigie, J. Virol. 69, 5908–5911 (1995). The sequences of substrate and target DNA were described in Nucleic Acid Research 22, 1121–1122 (1994).

Row | Compound | inhibition at 20 µM
1 | CN1CC(C(=O)N(C)Cc2ccc(F)cc2)=C(O)C1=O [Compound 1, 4-Hydroxy-1-methyl-5-oxo-2,5-dihydro-1H-pyrrole-3-carboxylic acid (4-fluoro-benzyl)-methyl amide] | 99.9%
2 | CN(Cc1ccc(F)cc1)C(=O)C1=C(O)C(=O)N(CCc2ccc(Cl)cc2)C1 [Compound 2, 1-[2-(4-Chloro-phenyl)ethyl]-4-hydroxy-5-oxo-2,5-dihydro-1H-pyrrole-3-carboxylic acid (4-fluoro-benzyl)-methyl amide] | 99.9%
3 | CN(Cc1ccc(F)cc1)C(=O)C1=C(O)C(=O)N(CCc2ccccc2Cl)C1 [Compound 3, 1-[2-(Chloro-phenyl)-ethyl]-4-hydroxy-5-oxo-2,5-dihydro-1H-pyrrole-3-carboxylic acid (4-fluoro-benzyl)-methyl amide] | 99.9%
4 | CN(Cc1ccc(F)cc1)C(=O)C1=C(O)C(=O)N(CCc2cccs2)C1 [Compound 4, 4-Hydroxy-5-oxo-1-(2-thiophen-2-yl-ethyl)-2,5-dihydro-1H-pyrrole-3-carboxylic acid (4-fluoro-benzyl)-methyl-amide] | 99.9%
5 | CN(Cc1ccc(F)cc1)C(=O)C1=C(O)C(=O)N(CCc2ccccc2F)C1 [Compound 5, 1-[2-(2-Fluoro-phenyl)-ethyl]-4-hydroxy-5-oxo-2,5-dihydro-1H-pyrrole-3-carboxylic acid (4-fluoro-benzyl)-methyl-amide] | 99.8%
6 | CN(Cc1ccc(F)cc1)C(=O)C1=C(O)C(=O)N(CCc2ccc(Cl)cc2Cl)C1 [Compound 6, 1-[2-(2,4-Dichloro-phenyl)-ethyl]-4-hydroxy-5-oxo-2,5-dihydro-1H-pyrrole-3-carboxylic acid (4-fluoro-benzyl)-methyl-amide] | 99.9%
7 | CN(Cc1ccc(F)cc1)C(=O)C1=C(O)C(=O)N(CCc2ccncc2)C1 [Compound 7, 4-Hydroxy-5-oxo-1-(2-pyridin-4-yl-ethyl)-2,5-dihydro-1H-pyrrole-3-carboxylic acid (4-fluoro-benzyl)-methyl-amide] | 99.9%
8 | CN(Cc1ccc(F)cc1)C(=O)C1=C(O)C(=O)N(CCc2ccccc2)C1 [Compound 8, 4-Hydroxy-5-oxo-1-phenethyl-2,5-dihydro-1H-pyrrole-3-carboxylic acid (4-fluoro-benzyl)-methyl-amide] | 99.9%
9 | CN(Cc1ccc(F)cc1)C(=O)C1=C(O)C(=O)N(CCc2ccc(F)cc2)C1 [Compound 9, 1-[2-(4-Fluoro-phenyl)-ethyl]-4-hydroxy-5-oxo-2,5-dihydro-1H-pyrrole-3-carboxylic acid (4-fluoro-benzyl)-methyl amide] | 99.9%
10 | CN(Cc1ccc(F)cc1)C(=O)C1=C(O)C(=O)N(CCCc2ccccc2)C1 [Compound 10, 4-Hydroxy-5-oxo-1-(3-phenyl-propyl)-2,5-dihydro-1H-pyrrole-3-carboxylic acid (4-fluoro-benzyl)-methyl-amide] | 99.9%
11 | CC(C)N1CC(C(=O)N(C)Cc2ccc(F)cc2)=C(O)C1=O [Compound 11, 4-Hydroxy-1-isopropyl-5-oxo-2,5-dihydro-1H-pyrrole-3-carboxylic acid (4-fluoro-benzyl)-methyl-amide] | 99.9%
12 | CN1CC(C(=O)N(C)Cc2ccc(Cl)c(Cl)c2)=C(O)C1=O [Compound 12, 4-Hydroxy-1-methyl-5-oxo-2,5-dihydro-1H-pyrrole-3-carboxylic acid (3,4-dichloro-benzyl)-methyl amide] | 99.9%
13 | CN(Cc1ccc(Cl)c(Cl)c1)C(=O)C1=C(O)C(=O)N(CCN2CCOCC2)C1 [Compound 13, 4-Hydroxy-1-(2-morpholin-4-yl-ethyl)-5-oxo-2,5-dihydro-1H-pyrrole-3-carboxylic acid (3,4-dichloro-benzyl)-methyl-amide] | 99.9%
14 | CNCCN1CC(C(=O)N(C)Cc2ccc(Cl)c(Cl)c2)=C(O)C1=O [Compound 15, 4-Hydroxy-1-(2-methylamino-ethyl)-5-oxo-2,5-dihydro-1H-pyrrole-3-carboxylic acid (3,4-dichloro-benzyl)-methyl-amide] | 99.7%
15 | CN(Cc1ccc(Cl)c(Cl)c1)C(=O)C1=C(O)C(=O)N(CC(C)(C)C)C1 [Compound 16, 1-(2,2-Dimethyl-propyl)-4-hydroxy-5-oxo-2,5-dihydro-1H-pyrrole-3-carboxylic acid (3,4-dichloro-benzyl)-methyl-amide] | 99.9%
16 | CN(Cc1ccc(Cl)c(Cl)c1)C(=O)C1=C(O)C(=O)N(CCc2ccc(S(N)(=O)=O)cc2)C1 [Compound 17, 4-Hydroxy-5-oxo-1-[2-(4-sulfamoyl-phenyl)-ethyl]-2,5-dihydro-1H-pyrrole-3-carboxylic acid (3,4-dichloro-benzyl)-methyl-amide] | 99.9%
17 | CN(Cc1ccc(Cl)c(Cl)c1)C(=O)C1=C(O)C(=O)N(Cc2ccc(Cl)c(Cl)c2)C1 [Compound 19, 1-(3,4-Dichloro-benzyl)-4-hydroxy-5-oxo-2,5-dihydro-1H-pyrrole-3-carboxylic acid (3,4-dichloro-benzyl)-methyl-amide] | 99.9%

Row | Compound | inhibition at 20 µM
18 | CN(Cc1ccc(Cl)c(Cl)c1)C(=O)C1=C(O)C(=O)N(Cc2ccncc2)C1 [Compound 21] | 99.9%
19 | CCN1CCCC1CN1CC(C(=O)N(C)Cc2ccc(Cl)c(Cl)c2)=C(O)C1=O (stereo not shown) [Compound 22, 1-(1-Ethyl-pyrrolidin-2-ylmethyl)-4-hydroxy-5-oxo-2,5-dihydro-3-carboxylic acid (3,4-dichloro-benzyl)-methyl-amide] | 99.9%
20 | CN(Cc1ccc(Cl)c(Cl)c1)C(=O)C1=C(O)C(=O)N(CCP(=O)(O)O)C1 [Compound 23, (2-{4-[(3,4-Dichloro-benzyl)-methyl-carbamoyl]-3-hydroxy-2-oxo-2,5-dihydro-pyrrol-1-yl}-ethyl)-phosphonic acid] | 99.9%
21 | CCOP(=O)(CCN1CC(C(=O)N(C)Cc2ccc(Cl)c(Cl)c2)=C(O)C1=O)OCC [Compound 23-A, (2-[4-[(3,4-Dichloro-benzyl)-methyl-carbamoyl]-3-hydroxy-2-oxo-2,5-dihydro-pyrrol-1-yl]-ethyl)-phosphonic acid diethyl ester] | 99.9%
22 | CN(Cc1ccc(Cl)c(Cl)c1)C(=O)C1=C(O)C(=O)N(CCCC(=O)O)C1 [Compound 24, 4-{4-[(3,4-Dichloro-benzyl)-methyl-carbamoyl]-3-hydroxy-2-oxo-2,5-dihydro-pyrrol-1-yl}-butyric acid] | 99.9%
23 | CN(Cc1ccc(Cl)c(Cl)c1)C(=O)C1=C(O)C(=O)N(C(CC(N)=O)C(=O)O)C1 (stereo not shown) [Compound 25, 2-{4-[(3,4-Dichloro-benzyl)-methyl-carbamoyl]-3-hydroxy-2-oxo-2,5-dihydro-pyrrol-1-yl}-succinamic acid] | 99.9%
24 | CN(Cc1ccc(Cl)c(Cl)c1)C(=O)C1=C(O)C(=O)N(CCN2CCCCC2)C1 [Compound 26, 4-Hydroxy-5-oxo-1-(2-piperidin-1-yl-ethyl)-2,5-dihydro-1H-pyrrole-3-carboxylic acid (3,4-dichloro-benzyl)-methyl-amide] | 99.9%
25 | CC(=O)NCCN1CC(C(=O)N(C)Cc2ccc(Cl)c(Cl)c2)=C(O)C1=O [Compound 27] | 99.9%
26 | CN(Cc1ccc(Cl)c(Cl)c1)C(=O)C1=C(O)C(=O)N(CCCCCCC(=O)O)C1 [Compound 28, 7-{4-[(3,4-dichloro-benzyl)-methyl-carbamoyl]-3-hydroxy-2-oxo-2,5-dihydro-pyrrol-1-yl}-heptanoic acid] | 99.9%
27 | CN(Cc1ccc(Cl)c(Cl)c1)C(=O)C1=C(O)C(=O)N(CCC(=O)NC(Cc2cncn2C)C(=O)O)C1 (stereo not shown) [Compound 29] | 99.9%
28 | CN(Cc1ccc(Cl)c(Cl)c1)C(=O)C1=C(O)C(=O)N(CCCn2ccnc2)C1 [Compound 30, 4-Hydroxy-1-(3-imidazol-1-yl-propyl)-5-oxo-2,5-dihydro-1H-pyrrole-3-carboxylic acid (3,4-dichloro-benzyl)-methyl-amide] | 99.9%
29 | CN(Cc1ccc(Cl)c(Cl)c1)C(=O)C1=C(O)C(=O)N(Cc2cccs2)C1 [Compound 31] | 99.9%
30 | CN1CCN(CCN2CC(C(=O)N(C)Cc3ccc(Cl)c(Cl)c3)=C(O)C2=O)CC1 [Compound 32, 4-Hydroxy-1-[2-(4-methyl-piperazin-1-yl)-ethyl]-5-oxo-2,5-dihydro-1H-pyrrole-3-carboxylic acid (3,4-dichloro-benzyl)-methyl-amide] | 99.9%
31 | COC(=O)CCCN1CC(C(=O)N(C)Cc2ccc(Cl)c(Cl)c2)=C(O)C1=O [Compound 33] | 99.9%
32 | COC(=O)CCN1CC(C(=O)N(C)Cc2ccc(Cl)c(Cl)c2)=C(O)C1=O [Compound 34, 3-{4-[(3,4-Dichloro-benzyl)-methyl-carbamoyl]-3-hydroxy-2-oxo-2,5-dihydro-pyrrol-1-yl}-propionic acid methyl ester] | 99.9%
33 | CN(Cc1ccc(Cl)c(Cl)c1)C(=O)C1=C(O)C(=O)N(CC(=O)NCC(=O)NCCC(=O)NCC(=O)O)C1 [Compound 35, {3-[2-(2-{4-[(3,4-Dichloro-benzyl)-methyl-carbamoyl]-3-hydroxy-2-oxo-2,5-dihydro-pyrrol-1-yl}-acetylamino)-acetylamino]-propionylamino}-acetic acid] | 99.9%
34 | CN(Cc1ccc(Cl)c(Cl)c1)C(=O)C1=C(O)C(=O)N(Cc2ccc(C(=O)O)cc2)C1 [Compound 36, 4-{4-[(3,4-Dichloro-benzyl)-methyl-carbamoyl]-3-hydroxy-2: oxo-2,5-dihydro-pyrrol-1-ylmethyl}-benzoic acid] | 92%
